The record followed here is PubChem BioAssay (NCI).

Among the test systems are HCT-15 colon; MDA-N; SR leukemia; SNB-19 CNS; NCI-H23 lung; OVCAR-3 ovarian; MCF7 breast; CAKI-1 renal; MDA-MB-231 breast; NCI-H522 lung.
Holding throughout (test): NCI-60 cell line screen, 48 h

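48-hour exposure; five concentrations; linearly interpolated endpoints. At the GI50, growth is halved. TGI: total growth inhibition.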

For `Cc1ccc(Cc2n[nH]c(=O)n2N2C(=O)c3ccccc3C2=O)cc1`, the TGI with HCT-15 colon, in the test with MDA-N, in the test on SR leukemia, with SNB-19 CNS, in the test on NCI-H23 lung and in the test with OVCAR-3 ovarian was greater than 100 µM in each case. The TGI in the test with MCF7 breast, in the test on CAKI-1 renal and in the test with MDA-MB-231 breast was greater than 100 µM throughout.

Regarding `Cc1ccc(S(=O)(=O)NCCCSCCO)cc1`, the TGI in the test with HCT-15 colon, in the test with MDA-N, with NCI-H522 lung, in the test on SR leukemia, in the test on SNB-19 CNS and with NCI-H23 lung was greater than 100 µM throughout. The TGI in the test with OVCAR-3 ovarian, with MCF7 breast and in the test on MDA-MB-231 breast was greater than 100 µM throughout.

Turning to `CC1(C)OC2[C@@H](CO[C@@]3([C@H]4OC(C)(C)O[C@@H]4CO)OC(C)(C)O[C@@H]23)O1` (stereo not given in full), the TGI with HCT-15 colon, in the test with MDA-N, in the test with NCI-H522 lung, with SR leukemia, in the test on SNB-19 CNS and with NCI-H23 lung was greater than 100 µM throughout. For the same molecule, the TGI in the test with OVCAR-3 ovarian, in the test on MCF7 breast and with MDA-MB-231 breast was greater than 100 µM each time.

Take `CCN(CCN(CC)C(=O)NC)C(=O)NC`: the TGI in the test on HCT-15 colon, in the test on MDA-N, with NCI-H522 lung, in the test with SR leukemia, with SNB-19 CNS and in the test on NCI-H23 lung was greater than 100 µM in each case. Also, the TGI with MCF7 breast and in the test with MDA-MB-231 breast was greater than 100 µM throughout.

On to `Cc1cc(N)c2cc(NC(=O)Nc3ccc4nc(C)cc(N)c4c3)ccc2n1`, for which the TGI with HCT-15 colon, with MDA-N, in the test on NCI-H522 lung, with SNB-19 CNS, in the test with NCI-H23 lung and with OVCAR-3 ovarian was greater than 100 µM in each case. Also, the TGI in the test with MCF7 breast, with CAKI-1 renal and in the test on MDA-MB-231 breast was greater than 100 µM each time.

On to `CCOP(=O)(OCC)C(C)(CC)/N=C(\N)NC#N` (stereo not given), for which the TGI in the test on HCT-15 colon, in the test with MDA-N, in the test with SR leukemia, in the test with SNB-19 CNS, in the test with NCI-H23 lung and with OVCAR-3 ovarian was greater than 100 µM throughout. The TGI in the test on MCF7 breast and with MDA-MB-231 breast was greater than 100 µM throughout.

Take `COc1cc(C(=O)N(C(=O)N2CCCCC2)c2ccccc2)cc(OC)c1OC`: the TGI with HCT-15 colon, with MDA-N, in the test on SR leukemia, with SNB-19 CNS, in the test on NCI-H23 lung and in the test on OVCAR-3 ovarian was greater than 100 µM each time. Besides, the TGI with MCF7 breast, in the test on CAKI-1 renal and in the test with MDA-MB-231 breast was greater than 100 µM each time.

`COc1cc(/C=C/c2ccc(S(N)(=O)=O)cc2)cc(OC)c1`: the GI50 in the test on HCT-15 colon was 17.4 µM; in the test on SR leukemia, 19.7 µM; in the test on NCI-H23 lung, 22.5 µM; in the test on CAKI-1 renal it was 19 µM. Besides, the TGI with HCT-15 colon was 53.5 µM; in the test on MDA-N, 56 µM; with SR leukemia it was 38 µM; in the test with SNB-19 CNS, greater than 100 µM; in the test on NCI-H23 lung, 49.8 µM; with OVCAR-3 ovarian, 33.2 µM. The TGI in the test with MCF7 breast was 75.1 µM; in the test on CAKI-1 renal, 47.3 µM; in the test with MDA-MB-231 breast it was 46.6 µM.

With `COC(=O)C1CCCN1C(=O)OC(C)(C)C` (stereo not given), the TGI in the test with HCT-15 colon, with MDA-N, in the test with SR leukemia, with SNB-19 CNS, with NCI-H23 lung and in the test on OVCAR-3 ovarian was greater than 100 µM each time. Further, the TGI with MCF7 breast, in the test with CAKI-1 renal and with MDA-MB-231 breast was greater than 100 µM each time.

Consider `N#CCN1CCCN(CC#N)CCN(CC#N)CCCN(CC#N)CC1`, for which the TGI with MDA-N, in the test with NCI-H522 lung, in the test on SR leukemia, in the test on SNB-19 CNS, in the test on NCI-H23 lung and in the test with OVCAR-3 ovarian was greater than 100 µM throughout. Also, the TGI with MCF7 breast, in the test with CAKI-1 renal and in the test with MDA-MB-231 breast was greater than 100 µM throughout.

On to `CC1=C(C(=O)NCCCN(CCO)CCO)CC(C(=O)NCCCN(CCO)CCO)=C(C)N1`, for which the TGI in the test on HCT-15 colon, with MDA-N, in the test on NCI-H522 lung, in the test on SNB-19 CNS, in the test on NCI-H23 lung and in the test on OVCAR-3 ovarian was greater than 100 µM in each case. Further, the TGI in the test with MCF7 breast, with CAKI-1 renal and in the test on MDA-MB-231 breast was greater than 100 µM in each case.

Consider `CCc1n[nH]c(=O)n1N=C(c1ccccc1)c1ccccc1`, for which the TGI with HCT-15 colon, in the test on MDA-N, in the test on NCI-H522 lung, in the test with SNB-19 CNS, in the test with NCI-H23 lung and in the test with OVCAR-3 ovarian was greater than 100 µM each time. The TGI in the test with MCF7 breast, with CAKI-1 renal and in the test on MDA-MB-231 breast was greater than 100 µM each time.

Regarding `CN(C)CCCN=c1c2ccccc2n(C)c2[nH]c(=O)n(C)c(=O)c12`, the TGI in the test on HCT-15 colon was greater than 100 µM; in the test on MDA-N, 16.2 µM; in the test with NCI-H522 lung, 9.34 µM; with SR leukemia it was 9.3 µM; in the test with SNB-19 CNS, greater than 64.4 µM; in the test on NCI-H23 lung, 21.7 µM. Further, the TGI was 26.6 µM in the test with MCF7 breast, greater than 100 µM in the test on CAKI-1 renal and 28 µM in the test with MDA-MB-231 breast.

On to `O=c1cc(NNc2cccc(F)c2)[nH]c(=S)[nH]1`, for which the TGI in the test with HCT-15 colon, in the test on MDA-N, in the test with SR leukemia, in the test with SNB-19 CNS, with OVCAR-3 ovarian and with MCF7 breast was greater than 100 µM each time. Moreover, the TGI in the test with MDA-MB-231 breast is greater than 100 µM.

`COc1cc(/C=C/C2=NN(c3cccc(S(=O)(=O)O)c3)C3(C2)SCC(=O)N3c2nc3ccccc3s2)cc(OC)c1OC` (stereo not given): the TGI is greater than 100 µM in the test on HCT-15 colon; greater than 100 µM with MDA-N; 38.4 µM with NCI-H522 lung; 66.2 µM in the test with SR leukemia; greater than 100 µM with SNB-19 CNS; greater than 100 µM in the test with NCI-H23 lung. The TGI with MCF7 breast, in the test with CAKI-1 renal and with MDA-MB-231 breast was greater than 100 µM in each case.
